In patent US8975259B2, “Compositions and methods for inhibiting G protein signaling” (University of Rochester, priority 2007, dated 2015):

Key:
[1] = system: Rac1 activation in differentiated HL60 cells; experiment: fMLP-induced Rac1 activation in differentiated HL60 cells; format: cell-based, human; details: 10 μM compound, 1 μM fMLP; result in words
Method: (§1) Differentiated HL60 cells stably expressing GFP-PH-Akt were challenged with 250 nM fMLP in the presence and absence of 10 μM concentrations of the indicated compounds. Translocation of GFP-PH-Akt to the plasma membrane was evaluated by Western blot. Quantification shown below. ***, P<0.001 analysis of variance (ANOVA) is statistically different from control (PBS+vehicle). […] Differentiated HL60 cells were challenged with 1 μM fMLP in the presence and absence of 10 μM concentrations of the indicated compounds. Rac1 activation was assessed by Western blots of affinity-precipitated GTP-Rac1 from HL60 cell lysates. Western blot shown is representative of three independent experiments and quantitation contains data pooled from three independent experiments±S.E.M. *P<0.05 ANOVA is statistically different from control (DMSO only). n=3. […] Differentiated HL60 cells were challenged with 250 nM fMLP or 250 nM PMA in the presence and absence of 10 μM compounds or 100 nM Wortmannin (Wtmn). NADPH oxidase activity was determined after reaction with NBT by absorbance at 540 nm. Data shown is contains data pooled from three independent experiments (each in duplicate)±S.E.M. *, P<0.05 ANOVA is statistically different from control (DMSO only).
HL60 cells (differentiated for 4 days) were washed with and resuspended in NaCl buffer to a final concentration of 20×10^6 cells/ml. Cells (10×10^6/reaction) were pretreated with 10 μMGβγ inhibitor (in DMSO) for 10 min before challenge with 1 μM fMLP for 90 s in a 37° C. water bath and then immediately transferred to an ice-water bath. Cells were recovered by centrifugation at 500 g and washed two times with ice-cold Tris-buffered saline, pH 7.4. […] Chemiluminescence was analyzed using a charge-coupled device camera in a UVP Epi-Chem II Darkroom imaging system. Results were expressed as percent fMLP-stimulated GTP Rac1 normalized to total Rac1 with the background subtracted.

[2] = system: NADPH oxidase activity in fMLP-challenged HL60 cells; experiment: fMLP-dependent superoxide production (NBT) in differentiated HL60 cells; format: cell-based, human; details: 10 μM compounds or 100 nM wortmannin, 250 nM fMLP; result in words
Method: as §1
The nitro blue tetrazolium (NBT) method was used to assess the effects of Gβγ inhibitors on NADPH oxidase activity. HL60 cells (differentiated for 4 days) were washed with and resuspended in HBSS containing calcium and magnesium (Cellgro; Mediatech, Herndon Va.) to a final concentration of 2×10^6 cells/ml. Cells (1×10^6/reaction) were pretreated with 10 μMGβγ inhibitor compound (in DMSO) or 100 nM wortmannin (Sigma Aldrich) for 10 min at 37° C. before the addition of NBT (25 μl of 10 mg/ml in methanol) and then incubated or an additional 5 min at 37° C. All treatments contained the same final concentration of DMSO. […] Cell pellets were then resuspended in 200 μl of DMSO, transferred to a 96-well plate, and absorbance was measured at 540 nm. […]

[3] = system: isolated adult mouse cardiomyocytes; experiment: Contractility of isolated adult mouse cardiomyocytes; format: cell-based; details: result in words
Method: Pretreatment with the general β-AR antagonist, propranolol, abolishes the effects of M119 and Iso on cardiomyocyte contractility.
The above data led to investigations that M119 plays a positive functional role in the heart, due in part to its inhibition of Gβγ-GRK2 interactions. Prior to pursuing in vivo studies with M119, the role of M119 affecting contractility was evaluated by assessment of isolated adult mouse cardiomyocyte contractility at baseline and in response to β-AR stimulation.
Mechanical properties of ventricular myocytes are assessed by an IonOptix Myocam system (IonOptix Inc., Milton, Mass., U.S.A.). Myocytes are superfused (at 25° C.) with Tyrodes, cells are pre-loaded in culture medium for 20 minutes with Fura-2, for concurrent calcium flux and myocyte contractility following field stimulation at 0.5 Hz.

SMILES	effect on fMLP-induced Rac1 activation [1]	effect on fMLP-dependent superoxide production [2]	effect on cardiomyocyte contractility at baseline and with isoproterenol [3]
O=C(O)C1CCCCC1c1c2ccc(=O)cc-2oc2cc(O)ccc12 (stereo not drawn) [Compound M119B]	little effect	did not significantly affect	no effect
O=C(O)C1CCCCC1c1c2ccc(=O)c(O)c-2oc2c(O)c(O)ccc12 (stereo not drawn) [Compound M119, cyclohexanecarboxylic acid, 2-(4,5,6-trihydroxy-3-oxo-3H-xanthen-9-yl)-(9cl)]	inhibited	significantly inhibited	enhanced
O=C(O)c1ccccc1-c1c2ccc(=O)c(O)c-2oc2c(O)c(O)ccc12 (racemic) [Gallein]	inhibited	significantly inhibited	significant positive effects
